Assay results as given in ChEMBL document CHEMBL3991601, “The target landscape of clinical kinase drugs” (Science, 2017).
Activity calls are given as the source filed them.

biological target: T1, General transcription and DNA repair factor IIH helicase subunit XPD (Homo sapiens, UniProt P18074); settings: read-out: Kd apparent; k-562, colo 205, sk-n-be(2) and mv-4-11
T1 sequence (P18074 whole entry): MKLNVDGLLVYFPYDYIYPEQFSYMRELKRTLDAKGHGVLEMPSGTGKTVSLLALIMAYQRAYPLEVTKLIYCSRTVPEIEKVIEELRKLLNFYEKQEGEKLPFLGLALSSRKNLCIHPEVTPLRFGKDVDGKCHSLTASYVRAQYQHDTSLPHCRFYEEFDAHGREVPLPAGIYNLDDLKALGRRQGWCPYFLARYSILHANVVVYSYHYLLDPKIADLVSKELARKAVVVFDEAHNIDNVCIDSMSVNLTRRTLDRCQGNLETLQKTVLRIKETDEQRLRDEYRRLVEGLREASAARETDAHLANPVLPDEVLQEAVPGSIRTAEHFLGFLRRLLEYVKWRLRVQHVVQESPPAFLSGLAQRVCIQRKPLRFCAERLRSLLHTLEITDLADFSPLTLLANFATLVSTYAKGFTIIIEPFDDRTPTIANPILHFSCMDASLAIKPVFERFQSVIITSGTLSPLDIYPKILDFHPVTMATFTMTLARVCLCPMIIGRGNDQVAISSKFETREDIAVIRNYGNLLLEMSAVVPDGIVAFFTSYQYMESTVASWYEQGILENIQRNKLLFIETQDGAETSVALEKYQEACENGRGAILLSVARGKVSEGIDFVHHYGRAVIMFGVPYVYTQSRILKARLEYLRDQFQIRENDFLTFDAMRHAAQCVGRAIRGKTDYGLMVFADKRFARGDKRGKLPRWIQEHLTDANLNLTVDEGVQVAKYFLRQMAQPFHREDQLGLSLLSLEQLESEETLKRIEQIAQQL
Also: in the data inactive means no Kd found up to 30 µM.

Row | Compound | Kd
1 | O=C(Nc1cccc(Cl)c1)Nc1ncc(CCNc2ncnc3ccsc23)s1 [SNS-314] | > 30 µM (inactive)
2 | Nc1nc(N)c2nc(-c3cccc(O)c3)c(-c3cccc(O)c3)nc2n1 [TG100-115] | > 30 µM (inactive)
3 | O=c1sn(-c2cccc3ccccc23)c(=O)n1Cc1ccccc1 [TIDEGLUSIB] | > 30 µM (inactive)
4 | COc1cc2nccc(Oc3ccc(NC(=O)Nc4cc(C)on4)c(Cl)c3)c2cc1OC [TIVOZANIB] | > 30 µM (inactive)
5 | O=C(Nc1ccc(-c2ccnc(Nc3ccc(N4CCOCC4)cc3)n2)cc1)C1CCCN1 (centres undefined) [XL-019] | > 30 µM (inactive)

biological target: Myosin light chain kinase, smooth muscle (Homo sapiens, UniProt Q15746); settings: not given
Sequence (Q15746 whole entry): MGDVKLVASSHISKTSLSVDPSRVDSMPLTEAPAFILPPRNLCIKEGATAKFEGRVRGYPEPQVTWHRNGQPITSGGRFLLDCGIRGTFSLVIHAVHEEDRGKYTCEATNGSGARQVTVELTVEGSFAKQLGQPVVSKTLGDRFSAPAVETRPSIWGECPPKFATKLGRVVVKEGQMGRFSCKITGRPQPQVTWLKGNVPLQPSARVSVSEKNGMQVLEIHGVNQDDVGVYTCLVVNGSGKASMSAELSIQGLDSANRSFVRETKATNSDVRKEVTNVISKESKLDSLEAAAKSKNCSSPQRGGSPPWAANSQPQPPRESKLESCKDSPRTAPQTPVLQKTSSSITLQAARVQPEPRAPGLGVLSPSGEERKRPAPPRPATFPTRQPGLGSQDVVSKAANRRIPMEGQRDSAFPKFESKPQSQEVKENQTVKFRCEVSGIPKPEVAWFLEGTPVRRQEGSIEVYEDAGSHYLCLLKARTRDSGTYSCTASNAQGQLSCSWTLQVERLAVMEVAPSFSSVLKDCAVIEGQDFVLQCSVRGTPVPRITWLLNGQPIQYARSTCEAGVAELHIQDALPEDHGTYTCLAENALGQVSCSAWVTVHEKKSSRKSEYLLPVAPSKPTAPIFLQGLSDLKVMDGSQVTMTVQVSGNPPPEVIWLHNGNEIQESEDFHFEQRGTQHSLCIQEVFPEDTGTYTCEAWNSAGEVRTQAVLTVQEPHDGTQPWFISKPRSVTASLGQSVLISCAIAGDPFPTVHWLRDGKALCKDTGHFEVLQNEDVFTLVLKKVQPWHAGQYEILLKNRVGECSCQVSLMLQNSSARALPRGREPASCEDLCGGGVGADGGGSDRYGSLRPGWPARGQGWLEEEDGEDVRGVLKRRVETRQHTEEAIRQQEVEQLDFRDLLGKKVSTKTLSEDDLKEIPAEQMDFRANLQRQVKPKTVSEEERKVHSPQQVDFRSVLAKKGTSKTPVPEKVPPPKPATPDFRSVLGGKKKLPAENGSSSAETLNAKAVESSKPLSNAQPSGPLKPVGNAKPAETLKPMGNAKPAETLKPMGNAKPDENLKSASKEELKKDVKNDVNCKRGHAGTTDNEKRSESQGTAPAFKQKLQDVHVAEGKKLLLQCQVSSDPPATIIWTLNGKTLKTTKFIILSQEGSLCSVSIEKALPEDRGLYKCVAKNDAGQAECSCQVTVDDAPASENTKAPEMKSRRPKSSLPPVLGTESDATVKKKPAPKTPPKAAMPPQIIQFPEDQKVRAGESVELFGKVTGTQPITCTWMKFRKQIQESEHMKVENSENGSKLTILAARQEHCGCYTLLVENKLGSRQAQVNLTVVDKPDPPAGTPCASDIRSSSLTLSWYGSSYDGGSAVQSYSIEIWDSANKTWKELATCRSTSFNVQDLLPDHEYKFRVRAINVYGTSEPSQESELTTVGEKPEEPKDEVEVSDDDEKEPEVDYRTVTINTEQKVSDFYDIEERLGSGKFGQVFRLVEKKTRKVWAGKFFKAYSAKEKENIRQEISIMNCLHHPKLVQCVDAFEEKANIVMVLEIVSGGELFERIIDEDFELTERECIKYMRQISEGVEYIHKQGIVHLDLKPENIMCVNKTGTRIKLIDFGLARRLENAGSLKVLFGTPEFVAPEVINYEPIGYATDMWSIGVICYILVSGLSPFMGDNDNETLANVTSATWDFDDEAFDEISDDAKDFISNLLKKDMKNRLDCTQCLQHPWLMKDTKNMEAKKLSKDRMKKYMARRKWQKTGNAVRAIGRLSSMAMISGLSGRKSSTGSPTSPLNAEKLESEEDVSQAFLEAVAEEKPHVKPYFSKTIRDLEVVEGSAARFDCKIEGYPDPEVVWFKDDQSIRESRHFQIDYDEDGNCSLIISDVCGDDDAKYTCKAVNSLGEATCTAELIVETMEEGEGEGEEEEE

Row | Compound | Kd
6 | O=C(Nc1cccc(Cl)c1)Nc1ncc(CCNc2ncnc3ccsc23)s1 [SNS-314] | > 30 µM (inactive)
7 | O=c1sn(-c2cccc3ccccc23)c(=O)n1Cc1ccccc1 [TIDEGLUSIB] | > 30 µM (inactive)
8 | COc1cc2nccc(Oc3ccc(NC(=O)Nc4cc(C)on4)c(Cl)c3)c2cc1OC [TIVOZANIB] | > 30 µM (inactive)
9 | O=C(Nc1ccc(-c2ccnc(Nc3ccc(N4CCOCC4)cc3)n2)cc1)C1CCCN1 (centres undefined) [XL-019] | > 30 µM (inactive)

biological target: T2, Acyl-CoA dehydrogenase family member 11 (Homo sapiens, UniProt Q709F0); settings: not given
T2 sequence (Q709F0 whole entry): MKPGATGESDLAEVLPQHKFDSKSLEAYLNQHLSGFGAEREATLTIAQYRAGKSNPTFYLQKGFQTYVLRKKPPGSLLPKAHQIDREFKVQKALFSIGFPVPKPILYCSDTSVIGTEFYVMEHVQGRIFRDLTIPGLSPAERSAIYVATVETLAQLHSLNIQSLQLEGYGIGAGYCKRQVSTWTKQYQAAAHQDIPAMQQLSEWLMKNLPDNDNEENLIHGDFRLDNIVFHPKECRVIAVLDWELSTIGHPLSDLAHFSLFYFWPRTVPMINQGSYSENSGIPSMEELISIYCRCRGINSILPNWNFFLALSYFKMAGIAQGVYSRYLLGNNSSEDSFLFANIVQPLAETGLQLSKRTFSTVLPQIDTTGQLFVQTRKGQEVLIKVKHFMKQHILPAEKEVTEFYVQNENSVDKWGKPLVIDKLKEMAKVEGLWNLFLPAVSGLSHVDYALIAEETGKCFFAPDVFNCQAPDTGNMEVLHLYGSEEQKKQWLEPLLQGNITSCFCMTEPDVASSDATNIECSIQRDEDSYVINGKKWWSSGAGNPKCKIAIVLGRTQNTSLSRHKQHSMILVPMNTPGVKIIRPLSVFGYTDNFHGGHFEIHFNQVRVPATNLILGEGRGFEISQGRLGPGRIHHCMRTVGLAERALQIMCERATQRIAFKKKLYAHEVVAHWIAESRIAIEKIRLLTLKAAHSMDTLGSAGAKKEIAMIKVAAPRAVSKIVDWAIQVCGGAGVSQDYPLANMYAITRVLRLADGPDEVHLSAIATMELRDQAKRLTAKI

Row | Compound | Kd
10 | O=C(Nc1cccc(Cl)c1)Nc1ncc(CCNc2ncnc3ccsc23)s1 [SNS-314] | > 30 µM (inactive)
11 | Nc1nc(N)c2nc(-c3cccc(O)c3)c(-c3cccc(O)c3)nc2n1 [TG100-115] | > 30 µM (inactive)
12 | COc1cc2nccc(Oc3ccc(NC(=O)Nc4cc(C)on4)c(Cl)c3)c2cc1OC [TIVOZANIB] | > 30 µM (inactive)

biological target: Mitogen-activated protein kinase 1 (Homo sapiens, UniProt P28482); settings: not given

Row | Compound | Kd
13 | O=c1sn(-c2cccc3ccccc23)c(=O)n1Cc1ccccc1 [TIDEGLUSIB] | > 30 µM (inactive)
14 | COc1cc2nccc(Oc3ccc(NC(=O)Nc4cc(C)on4)c(Cl)c3)c2cc1OC [TIVOZANIB] | > 30 µM (inactive)
15 | O=C(Nc1ccc(-c2ccnc(Nc3ccc(N4CCOCC4)cc3)n2)cc1)C1CCCN1 (centres undefined) [XL-019] | > 30 µM (inactive)

biological target: Bone morphogenetic protein receptor type-1B (Homo sapiens, UniProt O00238); settings: not given
Sequence (O00238 whole entry): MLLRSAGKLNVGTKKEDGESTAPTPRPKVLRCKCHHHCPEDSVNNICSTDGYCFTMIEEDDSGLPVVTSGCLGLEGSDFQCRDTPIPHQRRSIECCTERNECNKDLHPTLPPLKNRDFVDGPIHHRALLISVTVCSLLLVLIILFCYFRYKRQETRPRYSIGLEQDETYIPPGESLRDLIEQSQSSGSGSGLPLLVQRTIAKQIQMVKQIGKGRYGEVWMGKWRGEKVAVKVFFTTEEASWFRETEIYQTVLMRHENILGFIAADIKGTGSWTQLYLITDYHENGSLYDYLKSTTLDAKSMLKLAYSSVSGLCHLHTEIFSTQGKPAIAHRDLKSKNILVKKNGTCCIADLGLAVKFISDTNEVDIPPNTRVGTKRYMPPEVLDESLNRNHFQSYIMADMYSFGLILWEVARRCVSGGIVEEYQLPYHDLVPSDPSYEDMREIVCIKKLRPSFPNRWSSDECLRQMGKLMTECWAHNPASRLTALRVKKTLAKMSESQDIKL

Row | Compound | Kd
16 | O=C(Nc1cccc(Cl)c1)Nc1ncc(CCNc2ncnc3ccsc23)s1 [SNS-314] | > 30 µM (inactive)
17 | O=c1sn(-c2cccc3ccccc23)c(=O)n1Cc1ccccc1 [TIDEGLUSIB] | > 30 µM (inactive)
18 | COc1cc2nccc(Oc3ccc(NC(=O)Nc4cc(C)on4)c(Cl)c3)c2cc1OC [TIVOZANIB] | > 30 µM (inactive)
19 | O=C(Nc1ccc(-c2ccnc(Nc3ccc(N4CCOCC4)cc3)n2)cc1)C1CCCN1 (centres undefined) [XL-019] | > 30 µM (inactive)

biological target: RAC-gamma serine/threonine-protein kinase (Homo sapiens, UniProt Q9Y243); settings: not given
Sequence (Q9Y243 whole entry): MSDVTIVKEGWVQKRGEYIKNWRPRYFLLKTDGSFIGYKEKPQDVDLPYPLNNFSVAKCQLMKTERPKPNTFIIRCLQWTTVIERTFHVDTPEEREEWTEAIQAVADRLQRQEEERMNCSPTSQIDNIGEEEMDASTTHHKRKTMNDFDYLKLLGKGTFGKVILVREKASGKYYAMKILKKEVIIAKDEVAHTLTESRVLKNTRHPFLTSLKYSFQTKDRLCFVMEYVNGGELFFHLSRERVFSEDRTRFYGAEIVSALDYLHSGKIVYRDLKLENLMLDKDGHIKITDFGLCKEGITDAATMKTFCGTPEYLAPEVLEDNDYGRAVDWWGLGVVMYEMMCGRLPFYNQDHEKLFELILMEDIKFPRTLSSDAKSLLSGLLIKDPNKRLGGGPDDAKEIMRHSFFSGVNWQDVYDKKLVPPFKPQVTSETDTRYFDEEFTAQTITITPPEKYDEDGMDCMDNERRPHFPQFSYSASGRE

Row | Compound | Kd
20 | O=c1sn(-c2cccc3ccccc23)c(=O)n1Cc1ccccc1 [TIDEGLUSIB] | > 30 µM (inactive)
21 | COc1cc2nccc(Oc3ccc(NC(=O)Nc4cc(C)on4)c(Cl)c3)c2cc1OC [TIVOZANIB] | > 30 µM (inactive)
22 | O=C(Nc1ccc(-c2ccnc(Nc3ccc(N4CCOCC4)cc3)n2)cc1)C1CCCN1 (centres undefined) [XL-019] | > 30 µM (inactive)

biological target: T3, ATP-dependent RNA helicase DDX1 (Homo sapiens, UniProt Q92499); settings: not given
T3 sequence (Q92499 whole entry): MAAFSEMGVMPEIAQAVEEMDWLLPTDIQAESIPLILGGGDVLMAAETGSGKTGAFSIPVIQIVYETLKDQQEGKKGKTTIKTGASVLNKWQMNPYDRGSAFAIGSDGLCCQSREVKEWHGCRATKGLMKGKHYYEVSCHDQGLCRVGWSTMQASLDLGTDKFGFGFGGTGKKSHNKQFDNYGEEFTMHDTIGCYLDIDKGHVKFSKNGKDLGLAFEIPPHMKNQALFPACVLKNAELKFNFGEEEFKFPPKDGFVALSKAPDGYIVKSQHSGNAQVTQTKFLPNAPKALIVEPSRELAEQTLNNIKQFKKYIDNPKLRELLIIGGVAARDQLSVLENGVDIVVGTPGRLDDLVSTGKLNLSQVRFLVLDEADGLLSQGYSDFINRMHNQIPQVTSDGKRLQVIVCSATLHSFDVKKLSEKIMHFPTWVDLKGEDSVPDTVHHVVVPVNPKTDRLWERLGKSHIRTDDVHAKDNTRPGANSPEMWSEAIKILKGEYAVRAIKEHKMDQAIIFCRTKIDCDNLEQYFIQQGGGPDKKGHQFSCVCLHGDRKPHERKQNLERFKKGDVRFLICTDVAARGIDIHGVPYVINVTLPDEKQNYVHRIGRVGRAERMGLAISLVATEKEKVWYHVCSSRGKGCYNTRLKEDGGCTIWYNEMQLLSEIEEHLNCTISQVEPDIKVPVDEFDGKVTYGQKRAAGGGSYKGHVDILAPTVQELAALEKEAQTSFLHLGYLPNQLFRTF

Row | Compound | Kd
23 | O=C(Nc1cccc(Cl)c1)Nc1ncc(CCNc2ncnc3ccsc23)s1 [SNS-314] | > 30 µM (inactive)
24 | Nc1nc(N)c2nc(-c3cccc(O)c3)c(-c3cccc(O)c3)nc2n1 [TG100-115] | > 30 µM (inactive)
25 | O=c1sn(-c2cccc3ccccc23)c(=O)n1Cc1ccccc1 [TIDEGLUSIB] | > 30 µM (inactive)
26 | COc1cc2nccc(Oc3ccc(NC(=O)Nc4cc(C)on4)c(Cl)c3)c2cc1OC [TIVOZANIB] | > 30 µM (inactive)
27 | O=C(Nc1ccc(-c2ccnc(Nc3ccc(N4CCOCC4)cc3)n2)cc1)C1CCCN1 (centres undefined) [XL-019] | > 30 µM (inactive)

biological target: Mitogen-activated protein kinase kinase kinase 20 (Homo sapiens, UniProt Q9NYL2); settings: not given

Row | Compound | Kd
28 | O=c1sn(-c2cccc3ccccc23)c(=O)n1Cc1ccccc1 [TIDEGLUSIB] | > 30 µM (inactive)
29 | O=C(Nc1ccc(-c2ccnc(Nc3ccc(N4CCOCC4)cc3)n2)cc1)C1CCCN1 (centres undefined) [XL-019] | > 30 µM (inactive)

biological target: U5 small nuclear ribonucleoprotein 200 kDa helicase (Homo sapiens, UniProt O75643); settings: not given
Sequence (O75643 whole entry): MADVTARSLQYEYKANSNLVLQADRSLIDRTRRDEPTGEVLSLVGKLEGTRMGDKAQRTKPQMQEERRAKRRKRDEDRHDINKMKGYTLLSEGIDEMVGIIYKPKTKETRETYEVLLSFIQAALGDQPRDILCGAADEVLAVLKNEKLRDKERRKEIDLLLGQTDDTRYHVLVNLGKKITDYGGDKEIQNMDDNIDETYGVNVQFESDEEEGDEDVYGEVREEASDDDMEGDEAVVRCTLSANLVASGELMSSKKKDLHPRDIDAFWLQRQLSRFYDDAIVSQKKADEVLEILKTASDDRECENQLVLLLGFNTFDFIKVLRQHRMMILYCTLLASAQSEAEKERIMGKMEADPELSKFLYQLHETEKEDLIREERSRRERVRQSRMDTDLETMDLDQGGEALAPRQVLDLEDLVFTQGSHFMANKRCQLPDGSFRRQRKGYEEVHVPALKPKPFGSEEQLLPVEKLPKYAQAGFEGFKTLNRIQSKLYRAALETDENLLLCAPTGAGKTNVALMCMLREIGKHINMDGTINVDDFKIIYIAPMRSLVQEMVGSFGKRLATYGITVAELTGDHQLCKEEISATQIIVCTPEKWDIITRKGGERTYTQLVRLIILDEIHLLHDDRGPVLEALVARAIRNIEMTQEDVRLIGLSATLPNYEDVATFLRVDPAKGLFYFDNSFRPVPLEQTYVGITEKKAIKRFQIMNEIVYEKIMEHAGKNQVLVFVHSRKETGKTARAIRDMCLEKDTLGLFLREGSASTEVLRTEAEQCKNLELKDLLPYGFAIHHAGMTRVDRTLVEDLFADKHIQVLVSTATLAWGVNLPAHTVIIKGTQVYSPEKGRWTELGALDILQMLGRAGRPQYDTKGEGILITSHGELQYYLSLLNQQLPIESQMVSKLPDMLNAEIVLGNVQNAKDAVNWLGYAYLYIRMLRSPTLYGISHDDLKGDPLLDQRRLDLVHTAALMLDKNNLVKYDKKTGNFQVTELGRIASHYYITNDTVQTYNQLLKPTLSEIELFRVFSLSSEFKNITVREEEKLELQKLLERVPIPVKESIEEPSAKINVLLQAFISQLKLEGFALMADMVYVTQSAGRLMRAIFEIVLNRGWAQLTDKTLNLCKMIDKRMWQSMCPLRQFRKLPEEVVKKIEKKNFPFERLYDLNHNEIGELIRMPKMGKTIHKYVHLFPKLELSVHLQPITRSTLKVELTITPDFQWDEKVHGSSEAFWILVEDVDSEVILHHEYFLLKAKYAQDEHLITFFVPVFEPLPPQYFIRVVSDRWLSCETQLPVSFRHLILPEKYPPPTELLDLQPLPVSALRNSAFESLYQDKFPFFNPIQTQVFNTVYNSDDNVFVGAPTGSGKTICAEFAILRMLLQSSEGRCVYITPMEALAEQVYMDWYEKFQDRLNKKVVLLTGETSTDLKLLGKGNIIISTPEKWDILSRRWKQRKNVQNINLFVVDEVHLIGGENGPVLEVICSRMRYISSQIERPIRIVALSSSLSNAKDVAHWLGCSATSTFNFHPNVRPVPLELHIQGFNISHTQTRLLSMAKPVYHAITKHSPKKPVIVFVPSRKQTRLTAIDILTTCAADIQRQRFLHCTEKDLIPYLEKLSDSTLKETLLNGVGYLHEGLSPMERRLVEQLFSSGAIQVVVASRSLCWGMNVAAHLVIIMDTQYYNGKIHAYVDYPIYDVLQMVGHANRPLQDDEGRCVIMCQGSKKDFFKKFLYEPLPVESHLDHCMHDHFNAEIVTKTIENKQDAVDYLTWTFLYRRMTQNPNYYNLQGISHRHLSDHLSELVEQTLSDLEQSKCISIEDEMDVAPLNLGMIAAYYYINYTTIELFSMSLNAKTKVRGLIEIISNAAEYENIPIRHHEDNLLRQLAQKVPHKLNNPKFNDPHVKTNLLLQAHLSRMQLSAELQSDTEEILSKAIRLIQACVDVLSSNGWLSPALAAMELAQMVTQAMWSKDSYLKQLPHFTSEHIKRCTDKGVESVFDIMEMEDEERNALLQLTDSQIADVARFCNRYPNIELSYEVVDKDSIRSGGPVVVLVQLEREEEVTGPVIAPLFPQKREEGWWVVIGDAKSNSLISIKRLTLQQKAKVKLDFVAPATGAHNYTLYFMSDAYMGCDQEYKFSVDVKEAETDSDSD

Row | Compound | Kd
30 | O=C(Nc1cccc(Cl)c1)Nc1ncc(CCNc2ncnc3ccsc23)s1 [SNS-314] | > 30 µM (inactive)
31 | Nc1nc(N)c2nc(-c3cccc(O)c3)c(-c3cccc(O)c3)nc2n1 [TG100-115] | > 30 µM (inactive)
32 | O=c1sn(-c2cccc3ccccc23)c(=O)n1Cc1ccccc1 [TIDEGLUSIB] | > 30 µM (inactive)
33 | COc1cc2nccc(Oc3ccc(NC(=O)Nc4cc(C)on4)c(Cl)c3)c2cc1OC [TIVOZANIB] | > 30 µM (inactive)
34 | O=C(Nc1ccc(-c2ccnc(Nc3ccc(N4CCOCC4)cc3)n2)cc1)C1CCCN1 (centres undefined) [XL-019] | > 30 µM (inactive)
